In patent publication US8822517B2, “Arylosulfonamides for the treatment of CNS diseases” (Adamed SP. Z O.O., priority 2010, dated 2014):
Marks after values point to notes of the source that are not given here.

Assays:
[1] = molecular target: T1, histaminergic receptor (Cavia porcellus, UniProt P31389); test: Guinea-pig ileum test, antagonism of histamine contraction; settings: antagonistic activity towards histaminergic receptor, agonist histamine, read-out: H ant** (pKb) (converted)
T1 construct: Terminal ileum was dissected and placed into a Krebs solution; from tissue; host or cells: guinea-pig terminal ileum segments (organ bath)
Protocol: Ileum was prepared from male guinea-pigs with 300-350 g of body weight, fasted for 24 h before experiment with free access to drinking water. Terminal ileum was dissected and placed into a Krebs solution (NaCl 120 mM, KCl 5.6 mM, MgCl2 2.2 mM, CaCl2 2.4 mM, NaHCO3 19 mM, glucose 10 mM) and 2 cm-long fragments were cut. Each segment of the gut was placed in 30 ml chamber filled with the Krebs solution at 37 C, pH 7.4, with constant oxygenation (O2/CO2, 19:1), fixed by the lower end to a glass rod and by the upper end to the force-displacement transducer FDT 10-A (Biopac Systems, COMMAT, Ltd., Turkey). The preparation was allowed to stabilize in organ baths for 60 min under a resting tension of 0.5 g, washing every 15 min with fresh Krebs solution. All responses were recorded using software Biopac Systems Inc MP-35 Data Acquisition, Turkey.
In next step, stock solutions were diluted 10× in water.
The equilibration period a cumulative concentration-response curve was constructed in so each tissue for respective agonist—carbachol (3×10^−9−3×10^−6 M) or histamine (10^−8-10^−5 M) by the method of van Rossum (Ref. 24). Following the first agonist curve, tissues were incubated with one of the concentrations of tested compounds for 15 min and the next cumulative concentration curve to agonist was obtained. Only one concentration of the antagonist was tested in each piece of tissue. Experiments were repeated three to eight times.
After the equilibration period a cumulative concentration-response curve was constructed in each tissue for histamine (10^−8-10^−5 M) by the method of van Rossum. Following the first histamine curve, tissues were incubated with one of the concentrations of tested compounds for 15 min and the next cumulative concentration curve to histamine was obtained. Only one concentration of the antagonist was tested in each piece of tissue. Experiments were repeated three to seven times.
Concentration-response curves were analysed using GraphPad Prism 4.0 (GraphPad Software Inc., San Diego, Calif., USA). […]

[2] = tested on: mice; test: d-Amphetamine-induced locomotor hyperactivity in mice; settings: for MED*: minimum effective dose, d-amphetamine-induced locomotor hyperactivity, i.p.
Protocol: (§1) All the experiments were performed by two observers unaware of the treatment applied between 9:00 and 14:00 on separate groups of animals. All animals were used only once and were killed immediately after the experiment.
The locomotor activity was recorded with an Opto M3 multi-channel activity monitor (MultiDevice Software v. 1.3, Columbus Instruments). The mice were individually placed in plastic cages (22×12×13 cm) for 30 minutes habituation period, and then the crossings of each channel (ambulation) were counted during 1 h with data recording every 5 minutes. The cages were cleaned up with 70% ethanol after each mouse. Drugs were administered to 10 mice per treatment group. d-Amphetamine was administered 30 minutes before the test.
(§2) An injection volume of 10 ml/kg (mice) or 2 ml/kg (rats) was used throughout and all compounds were administered intraperitoneally (i.p.), except d-amphetamine that was given subcutaneously (s.c.).
All the data are expressed as the mean±SEM. The statistical significance of effects was evaluated using separate one-way analysis of variance (ANOVA) with comparison between individual groups by Dunnett's test (when only one drug was given) or by the Tukey's test when two drugs were used; p<0.05, p<0.01 and p<0.001 were considered statistically significant. ED50 values were calculated using Graph Pad Prism 5 Software.

[3] = tested on: Wistar rats; test: Amphetamine-induced PPI deficits in rats
From the text: (§3) Drug-naive male Wistar rats (Charles River, Sulzfeld, Germany) weighing 250-400 g were used in all experiments. Rats were housed two per standard plastic cage and kept in a room with constant environmental conditions (21-22′C, relative humidity 60%, a 12:12 light-dark cycle with lights on at 7:00 a.m.). Animals were supplied by the breeder two weeks before the onset of behavioral procedures. During this time, the subjects were weighed and handled several times. Tap water and standard lab chow (Labofeed H, WPIK, Kcynia, Poland) was available ad libitum.
as §2
The PPI apparatus consisted of eight startle chambers (SR-LAB, San Diego Instruments, San Diego, Calif., USA). […] Startle responses, reflecting the motion of animals in the cylinder so following the acoustic stimulus, were detected by a piezoelectric transducer mounted below the frame. […]
This interval was randomized by the SR-LAB software. Startle responses were measured for 100 ms after the onset of the last trial stimulus. […]
Startle responses (in manufacturer's arbitrary units), and magnitudes of PPI (%) were analyzed with the aid of a one-way analysis of variance (ANOVA). […]

[4] = tested on: Wistar rats; test: Elevated plus maze test in rats
Protocol: as §1
Floor of the plus-maze was made of infrared transparent material what means that there are no visible sensors. The plus-maze was placed in a darkened room, and the center of the apparatus was illuminated with a 25 W electric bulb hanging 100 cm above. Plus-maze apparatus was connected to PC software by control chassis. Each rat was gently placed in the center of the plus-maze, facing one of the closed arms, immediately after a 5-min adaptation period in a plastic black box (60×60×35 cm). During a 5-minutes test period, automated Motor Monitor System recorded the number of entries into the closed and open arms, the time spent in and the distance (cm) covered by a rat in either type of the arms. After each trial the maze was wiped clean. All compounds were administered to 5-8 rats per treatment group.

[5] = tested on: Wistar rats; test: Forced swimming test (Porsolt's test) in rats; format: in vivo
From the text: as §3, §2
The animals were individually subjected to two experimental trials during which they were forced to swim in a cylinder (40 cm high, 18 cm in diameter) filled with warm water (25° C.) to a height of 15 cm. A video camera was mounted 50 cm above the cylinder. The first (habituation) and second (test) trial lasted 15 and 5 minutes, respectively. There was a 24-h interval between the trials. The total duration of immobility was measured during the second trial by a trained observer located in a separate room.
Weights and time of immobility were analyzed with the aid of a one-way analysis of variance (ANOVA). […]

[6] = tested on: Wistar rats; test: Conditioned avoidance response (CAR) in rats
Protocol: as §2
Rats trained to avoid the foot shock were placed in the experimental chambers for a 3 min. habituation period followed by 50 CAR trials presented on a 15-s variable interval (VI) schedule. Each trial consisted of a 10 s warning tone and stimulus light (conditioned stimulus) followed by 10 s electric shock (0.5 mA). If during the initial 10 s of the trial an animal crossed through the sliding door, the tone and light were terminated, no shock was applied, and the response was considered as “an avoidance response”. If the animal crossed through the sliding door after a foot shock was initiated, the response was considered as an escape response. […] If a response was made during an intertrial interval, it was punished with 0.5 s shock (0.5 mA). […] On test days, a tested drug was administered i.p. 60 minutes before the start of the test session. Each drug was tested at 3-4 different doses in the same group of eight animals. A 7-day wash-out period was introduced between the subsequent tests. […]
Avoidances, escapes, and “none” responses were analyzed with the aid of a one-way analysis of variance (ANOVA). […]

[7] = tested on: Wistar rats; test: Passive avoidance procedure in rats; settings: passive-avoidance (model of memory disturbance)
From the text: as §3
Potentially impairing effects of test substance on learning and memory function in rats were evaluated using a step-through passive avoidance (PA) test. […]
In the training session (acquisition), animals were placed in the lighted compartment and allowed to explore it freely for 10 s. The sliding door was then opened, and the step-through latency for a rat to enter the dark compartment was measured. […]
The test (expression) session was performed 24 h after the training session. […] A step-through latency for animals to enter the dark compartment was measured with a cut-off of 300 s.
Weights and step-trough latencies were analyzed with the aid of a one-way analysis of variance (ANOVA). […]

[8] = tested on: Wistar rats; test: 2,5-Dimethoxy-4-iodoamphetamine (DOI)-induced head twitches in rats
From the text: as §3, §2
All tests were carried out in a sound-attenuated experimental room between 9:00 a.m. and 3:00 p.m. as described above for spontaneous head twitches. […] Rats were pre-injected i.p. with a test drug 60 min. before the start of the test session. […] Five minutes later, head twitches were counted for 5 minutes. (300 s) by a trained observer.
Total numbers of head twitches (n/5 min.) were analyzed by means of the Kruskal-Wallis analysis of variance (ANOVA). The Mann-Whitney U test was used for individual post hoc comparisons.

[9] = tested on: mice; test: MK-801-induced locomotor hyperactivity in mice
Protocol: as §1
The locomotor activity was recorded with an Opto M3 multi-channel activity monitor (MultiDevice Software v. 1.3, Columbus Instruments). The mice were individually placed in plastic cages (22×12×13 cm) for 30 minutes habituation period, and then the crossings of each channel (ambulation) were counted during 1 h with data recording every 5 minutes. The cages were cleaned up with 70% ethanol after each mouse.
The locomotor activity was recorded according to method described above.
as §2
All the data are expressed as the mean±SEM. The statistical significance of effects was evaluated using separate one-way analysis of variance (ANOVA) with comparison between individual groups by Dunnett's test (when only one drug was given) or by the Tukey's test when two drugs were used; p<0.05, p<0.01 and p<0.001 were considered statistically significant.

[10] = tested on: Wistar rats; test: Conflict drinking test (Vogel test) in rats; format: in vivo
From the text: Recording data started immediately after the first lick and every 20 licks rats were punished with an electric shock (0.5 mA, lasting 1 s). […] If a rat was drinking when an impulse was released, it received a shock.

[11] = tested on: Wistar rats; test: Apomorphine-induced stereotyped behaviour in rats
From the text: as §3, §2
All tests were carried out in a sound-attenuated experimental room between 9:00 a.m. and 3:00 p.m. Within 24 h prior to testing, rats were habituated to glass observation so cages (25×25×40 cm, W×H×L) with wood chip bedding on the floor for 20 min. […] Rats were injected with apomorphine (0.6 mg/kg) and placed in the observation cages. […] Twenty minutes later, the time spent licking/biting and sniffing downward was recorded by a trained observer for 5 minutes (300 s). […]
The duration of stereotyped sniffing and licking/biting was analyzed with the aid of the Kruskal-Wallis analysis of variance (ANOVA). […]

[12] = tested on: Swiss mice; test: Four-plate test in Swiss mice; format: in vivo
[13] = tested on: Wistar rats; test: MK-801-induced stereotyped behaviour in rats; settings: MK-801-induced stereotyped behaviour (glutamate-related psychosis model)
From the text: as §3, §2
All tests were carried out in a sound-attenuated experimental room between 9:00 a.m. and 3:00 p.m. Within 24 h prior to testing, rats were habituated to glass observation cages (25×25×40 cm, W×H×L) with wood chip bedding on the floor for 20 min. […] Views of other rats in the experiment were prohibited. Fifteen minutes later, the time spent circling/head waving was recorded by a trained observer for 5 min. […] Rats were pre-injected with a test drug 60 min. before the start of the observation period.
The duration of stereotyped circling was analyzed with the aid of the Kruskal-Wallis analysis of variance (ANOVA). […]

[14] = tested on: C57BL/6J mice; test: Tail suspension test in C57BL/6J mice; format: in vivo
[15] = molecular target: serotoninergic 5-HT2C receptor (Homo sapiens, UniProt P28335); test: Cellular functional assay, serotoninergic 5-HT2C receptor (agonism/antagonism); format: cell-based; settings: agonist effect, percent of control specific agonist response; 1×10^−6M
Protocol: The compounds were tested at the concentration of 1×10^−6M.
In the Tables ag refers to agonism, and antag to antagonism).

T1 sequence (P31389 whole entry): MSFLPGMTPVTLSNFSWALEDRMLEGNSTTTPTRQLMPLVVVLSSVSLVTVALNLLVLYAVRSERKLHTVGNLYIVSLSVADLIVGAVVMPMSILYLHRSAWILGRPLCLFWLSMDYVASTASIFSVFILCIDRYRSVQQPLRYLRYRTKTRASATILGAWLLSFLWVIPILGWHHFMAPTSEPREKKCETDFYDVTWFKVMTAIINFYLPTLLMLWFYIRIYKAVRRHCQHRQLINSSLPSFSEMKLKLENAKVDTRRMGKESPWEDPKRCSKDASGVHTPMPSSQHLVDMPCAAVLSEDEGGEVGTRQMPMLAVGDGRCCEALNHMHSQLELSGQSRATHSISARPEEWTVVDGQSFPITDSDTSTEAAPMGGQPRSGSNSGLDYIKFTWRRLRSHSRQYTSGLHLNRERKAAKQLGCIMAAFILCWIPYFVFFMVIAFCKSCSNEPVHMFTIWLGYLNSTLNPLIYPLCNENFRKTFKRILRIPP
serotoninergic 5-HT2C receptor, sequence (P28335 33-458): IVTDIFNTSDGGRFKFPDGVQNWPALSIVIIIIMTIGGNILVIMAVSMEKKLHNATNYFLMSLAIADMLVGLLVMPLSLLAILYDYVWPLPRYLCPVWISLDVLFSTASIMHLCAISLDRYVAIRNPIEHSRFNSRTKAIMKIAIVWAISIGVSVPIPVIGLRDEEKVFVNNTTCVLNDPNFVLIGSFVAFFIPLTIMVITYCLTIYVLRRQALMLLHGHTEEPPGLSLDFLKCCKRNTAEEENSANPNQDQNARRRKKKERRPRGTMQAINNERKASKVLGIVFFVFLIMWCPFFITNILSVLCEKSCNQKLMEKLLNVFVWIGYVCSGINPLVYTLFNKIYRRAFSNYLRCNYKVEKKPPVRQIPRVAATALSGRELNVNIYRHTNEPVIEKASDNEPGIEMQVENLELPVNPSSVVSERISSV

O=S(=O)(NCCCCN1CCN(c2nsc3ccccc23)CC1)c1cccc2ccccc12 [Compound 1, N-(4-(4-(1,2-Benzothiazol-3-yl)piperazin-1-yl)butyl)naphthalene-1-sulphonamide]
Kb [1]: 498 nM

O=S(=O)(NCCCCN1CCN(c2nsc3ccccc23)CC1)c1ccc2ccccc2c1 [Compound 2, N-(4-(4-(1,2-Benzothiazol-3-yl)piperazin-1-yl)butyl)naphthalene-2-sulphonamide]
MED* [2]: 5 mg/kg
Kb [1]: 457 nM

Cc1cccc(S(=O)(=O)NCCCCN2CCN(c3nsc4ccccc34)CC2)c1 [Compound 3, N-(4-(4-(1,2-Benzothiazol-3-yl)piperazin-1-yl)butyl)-3-methylbenzenesulphonamide]
Kb [1]: 148 nM

Cc1cccc(S(=O)(=O)NCCCN2CCN(c3nsc4ccccc34)CC2)c1 [Compound 7, N-(3-(4-(1,2-Benzothiazol-3-yl)piperazin-1-yl)propyl)-3-methylbenzenesulphonamide]
MED* [2]: 2 mg/kg

O=S(=O)(NCCCCN1CCC(c2noc3cc(F)ccc23)CC1)c1ccc2ccccc2c1 [Compound 18, N-[4-[4-(6-Fluoro-1,2-benzoxazol-3-yl)piperidin-1-yl]butyl]naphthalene-2-sulphonamide]
MED* [2]: 2.5 mg/kg

Cc1cccc(S(=O)(=O)NCCCN2CCC(c3noc4cc(F)ccc34)CC2)c1 [Compound 22, N-[3-[4-(6-Fluoro-1,2-benzoxazol-3-yl)piperidin-1-yl]propyl]-3-methylbenzenesulphonamide]
activity in reversal of deficits in prepulse inhibition in rats [3]: active
MED ([3]; prepulse inhibition disruption caused by amphetamine administration): 30 mg/kg
activity in elevated plus maze ([4]; anxiolytic model): active
MED [mg/kg] ([4]; elevated plus-maze (potential anxiolytic activity)): ≤ 0.3 * mg/kg
MED ([5]; Porsolt forced swim test (potential antidepressant activity)): 0.3 mg/kg
activity in forced swim test (Porsolt) in rats ([5]; antidepressant model): active
activity in active avoidance response [6]: active
MED ([6]; active-avoidance response (model of positive symptoms of schizophrenia)): 3 mg/kg
MED [7]: >30 mg/kg
activity in d-amphetamine induced hyperlocomotion [2]: active
MED* [2]: 2.5 mg/kg
activity in stereotyped behavior induced by DOI [8]: active
MED [mg/kg] ([8]; DOI-induced head twitches (serotonin-related psychosis model)): ≤ 1 * mg/kg
activity in MK-801 induced hyperlocomotion [9]: active
MED* ([9]; minimum effective dose, MK-801-induced locomotor hyperactivity, i.p.): 1.25 mg/kg
MED ([10]; Vogel test (potential anxiolytic activity)): 3 mg/kg
activity in conflict drinking test (Vogel) in rats ([10]; anxiolytic model): active
activity in stereotyped behavior induced by apomorphine [11]: active
MED ([11]; apomorphine-induced stereotyped behaviour (dopamine-related psychosis model)): 10 mg/kg
MED ([12]; four-plate test in mice): 0.312 mg/kg
activity in four plates test in mice ([12]; mice, anxiolytic model): active
MED [13]: 3 mg/kg
activity in tail suspension test in mice ([14]; mice, antidepressant model): active
MED ([14]; tail suspension test in C57BL/6J mice): 0.156 mg/kg

Cc1c(S(=O)(=O)NCCCCN2CCN(c3nsc4ccccc34)CC2)sc2ccc(F)cc12 [Compound 65, N-[4-[4-(1,2-Benzothiazol-3-yl)piperazin-1-yl]butyl]-5-fluoro-3-methylbenzothiophene-2-sulphonamide]
5-HT2C -ag [%] [15]: 0%

O=S(=O)(NCCCCN1CCC(c2noc3cc(F)ccc23)CC1)c1ccc2cc(Cl)ccc2c1 [Compound 97, 6-Chloro-N-[4-[4-(6-fluoro-1,2-benzoxazol-3-yl)piperidin-1-yl]butyl]naphthalene-2-sulphonamide]
MED* [2]: 2.5 mg/kg

O=S(=O)(NCCCCN1CCN(c2nsc3ccccc23)CC1)c1cc2ccc(Cl)cc2s1 [Compound 241, N-[4-[4-(1,2-Benzothiazol-3-yl)piperazin-1-yl]butyl]-6-chlorobenzothiophene-2-sulphonamide]
5-HT2C -ag [%] [15]: −4%
